Experimental data from the NIST ThermoML archive (doi:10.1021/acs.jced.6b00037).
Numbers after ± are expanded uncertainties.

What was measured:
[1] = Molar enthalpy of transition or fusion; settings: Crystal; DSC
[2] = Crystal; DSC

- Molar enthalpy of transition or fusion [1]: 21.9 ± 0.99 kJ/mol
- Triple point temperature [2]: 363.2 ± 1.2 K
SMILES: CCOC(=O)c1ccc(N)cc1 [ethyl 4-aminobenzoate]
